Each block holds one molecule with its values, some of them ahead of it.
How the values were obtained:
human TGR5 = biological target: T1, human TGR5 (Homo sapiens, UniProt Q8TDU6); assay: cAMP HTRF TGR5 agonism assay in HEK293T cells expressing human TGR5; type: cell-based; details: for TGR5 agonistic activity (in words): hTGR5, cAMP HTRF
T1 sequence (Q8TDU6 1-330): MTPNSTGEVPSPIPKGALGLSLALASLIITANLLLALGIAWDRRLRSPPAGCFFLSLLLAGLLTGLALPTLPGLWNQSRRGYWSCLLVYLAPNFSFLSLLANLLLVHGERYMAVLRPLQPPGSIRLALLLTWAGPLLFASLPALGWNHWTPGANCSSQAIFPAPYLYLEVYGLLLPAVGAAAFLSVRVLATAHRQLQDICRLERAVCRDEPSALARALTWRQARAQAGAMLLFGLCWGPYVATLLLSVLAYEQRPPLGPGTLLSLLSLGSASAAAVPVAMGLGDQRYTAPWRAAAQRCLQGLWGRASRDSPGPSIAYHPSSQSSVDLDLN

mouse TGR5 = biological target: T2, mouse TGR5 (Mus musculus, UniProt Q80SS6); assay: cAMP HTRF TGR5 agonism assay in HEK293T cells expressing mouse TGR5; type: cell-based
T2 sequence (Q80SS6 1-329): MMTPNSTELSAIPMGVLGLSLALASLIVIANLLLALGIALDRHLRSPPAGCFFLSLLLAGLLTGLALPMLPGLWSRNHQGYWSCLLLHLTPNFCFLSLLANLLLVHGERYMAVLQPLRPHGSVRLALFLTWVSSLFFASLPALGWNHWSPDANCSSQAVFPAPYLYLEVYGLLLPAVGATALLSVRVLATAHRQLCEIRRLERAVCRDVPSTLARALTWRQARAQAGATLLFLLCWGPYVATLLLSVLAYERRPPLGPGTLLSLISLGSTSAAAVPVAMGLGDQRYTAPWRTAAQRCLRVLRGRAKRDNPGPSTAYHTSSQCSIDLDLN

A549 cells = assay: CCK8 cytotoxicity assay in A549 cells; type: cell-based; details: Homo sapiens, A549, read-out: IC50 A549
HeLa cells = assay: CCK8 cytotoxicity assay in HeLa cells; type: cell-based; details: Homo sapiens, read-out: IC50 HeLa
[1] = In vitro human plasma stability assay; type: in vitro ADME
NCI-H716 cells = assay: In vitro GLP-1 secretion assay; type: cell-based, human; details: 4 μM, 2 h
C57 BL/6 mice = assay: In vivo GLP-1 secretion; details: 50 mg kg−1 oral, blood 4 h later

EC50 (human TGR5): 0.00144 µM | EC50 (mouse TGR5): 0.12 µM
Structure (SMILES): O=C(c1nccnc1Oc1ccccc1Cl)N1CCN(C2CC2)c2ccccc21 [18g, (3-(2-Chlorophenoxy)pyrazin-2-yl)(4-cyclopropyl-3,4-dihydroquinoxalin-1(2H)-yl)methanone]
IC50 (A549 cells): > 50 µM | IC50 (HeLa cells): > 50 µM

EC50 (human TGR5): 0.00058 µM | EC50 (mouse TGR5): 0.267 µM | half-life [1]: > 4.82 h | remaining at 0 h [1]: 100% | remaining at 0.5 h [1]: 104% | remaining at 1 h [1]: 102% | remaining at 2 h [1]: 85.4%
Structure (SMILES): O=C(c1nccnc1Oc1cc(Cl)ccc1Cl)N1CCN(C2CC2)c2ccccc21 [18k, (4-Cyclopropyl-3,4-dihydroquinoxalin-1(2H)-yl)(3-(2,5-dichlorophenoxy)pyrazin-2-yl)methanone]
IC50 (A549 cells): > 50 µM | IC50 (HeLa cells): > 50 µM | GLP-1 secretion compared to control (NCI-H716 cells): increase the secretion of GLP-1 | GLP-1 secretion compared to control (C57 BL/6 mice): increase GLP-1 secretion

EC50 (human TGR5): 0.442 µM
Structure (SMILES): O=C(c1nccnc1Oc1ccc(F)cc1)N1CCN(C2CC2)c2ccccc21 [18e, (4-Cyclopropyl-3,4-dihydroquinoxalin-1(2H)-yl)(3-(4-fluorophenoxy)pyrazin-2-yl)methanone]

EC50 (human TGR5): 0.0367 µM
Structure (SMILES): O=C(c1nccnc1Oc1ccccc1F)N1CCN(C2CC2)c2ccccc21 [18f, (4-Cyclopropyl-3,4-dihydroquinoxalin-1(2H)-yl)(3-(2-fluorophenoxy)pyrazin-2-yl)methanone]

EC50 (human TGR5): 0.00989 µM | EC50 (mouse TGR5): 0.538 µM
Structure (SMILES): O=C(c1nccnc1Oc1ccc(Cl)cc1Cl)N1CCN(C2CC2)c2ccccc21 [18j, (4-Cyclopropyl-3,4-dihydroquinoxalin-1(2H)-yl)(3-(2,4-dichlorophenoxy)pyrazin-2-yl)methanone]
IC50 (A549 cells): > 50 µM | IC50 (HeLa cells): > 50 µM

Continued, molecule first:

Structure (SMILES): O=C(c1nccnc1Oc1ccc(-c2ccccc2)cc1)N1CCN(C2CC2)c2ccccc21 [18l, (3-([1,1′-Biphenyl]-4-yloxy)pyrazin-2-yl)(4-cyclopropyl-3,4-dihydroquinoxalin-1(2H)-yl)methanone]
EC50 (human TGR5): 0.895 µM

Structure (SMILES): O=C(C1Cc2ccccc2CN1Cc1ccc(Cl)cc1)N1CCN(C2CC2)c2ccccc21 (stereo not shown) [18a, (2-(4-Chlorobenzyl)-1,2,3,4-tetrahydroisoquinolin-3-yl)(4-cyclopropyl-3,4-dihydroquinoxalin-1(2H)-yl)methanone]
EC50 (human TGR5): > 30 µM | TGR5 agonistic activity (in words) (human TGR5): no TGR5 agonistic activities

Structure (SMILES): O=C(c1nccnc1Oc1cc(Cl)ccc1Cl)N1CCOc2ccccc21 [18u, (3-(2,5-Dichlorophenoxy)pyrazin-2-yl)(2,3-dihydro-4H-benzo[b][1,4]oxazin-4-yl)methanone]
EC50 (human TGR5): > 10 µM

Structure (SMILES): O=C(c1nccnc1Oc1ccc(Cl)cc1)N1CCN(C2CC2)c2ccccc21 [18d, (3-(4-Chlorophenoxy)pyrazin-2-yl)(4-cyclopropyl-3,4-dihydroquinoxalin-1(2H)-yl)methanone]
EC50 (human TGR5): 1.5 µM

Structure (SMILES): O=C(c1nccnc1Oc1cc(Cl)ccc1Cl)N1CCN(c2ccccc2F)CC1 [18o, (3-(2,5-Dichlorophenoxy)pyrazin-2-yl)(4-(2-fluorophenyl)piperazin-1-yl)methanone]
EC50 (human TGR5): > 10 µM

Structure (SMILES): COc1ccc(Oc2nccnc2C(=O)N2CCN(C3CC3)c3ccccc32)cc1 [18h, (4-Cyclopropyl-3,4-dihydroquinoxalin-1(2H)-yl)(3-(4-methoxyphenoxy)pyrazin-2-yl)methanone]
EC50 (human TGR5): 0.196 µM

Structure (SMILES): CN(C(=O)c1nccnc1Oc1cc(Cl)ccc1Cl)c1ccc(F)cc1 [18r, 3-(2,5-Dichlorophenoxy)-N-(4-fluorophenyl)-N-methylpyrazine-2-carboxamide]
EC50 (human TGR5): > 10 µM

Structure (SMILES): O=C(c1cc2sccc2n1Cc1ccc(Cl)cc1)N1CCN(C2CC2)c2ccccc21 [18c, (4-(4-Chlorobenzyl)-4H-thieno[3,2-b]pyrrol-5-yl)(4-cyclopropyl-3,4-dihydroquinoxalin-1(2H)-yl)methanone]
EC50 (human TGR5): > 30 µM | TGR5 agonistic activity (in words) (human TGR5): no TGR5 agonistic activities

Structure (SMILES): O=C(c1cc2ccccc2n1Cc1ccc(Cl)cc1)N1CCN(C2CC2)c2ccccc21 [18b, (1-(4-Chlorobenzyl)-1H-indol-2-yl)(4-cyclopropyl-3,4-dihydroquinoxalin-1(2H)-yl)methanone]
EC50 (human TGR5): > 30 µM | TGR5 agonistic activity (in words) (human TGR5): no TGR5 agonistic activities

Structure (SMILES): Cc1ccc(Oc2nccnc2C(=O)N2CCN(C3CC3)c3ccccc32)cc1 [18i, (4-Cyclopropyl-3,4-dihydroquinoxalin-1(2H)-yl)(3-(p-tolyloxy)pyrazin-2-yl)methanone]
EC50 (human TGR5): 0.0832 µM

Reference: publication PMC8979340 (RSC Advances, 2022)
